Test results as given in ChEMBL document CHEMBL4368877, “Discovery of potent pyruvate dehydrogenase kinase inhibitors and evaluation of their anti-lung cancer activity under hypoxia” (Medchemcomm, 2018).
Calls of active or inactive are those of the source. The calls are words filed in the database; no cut-off is given here.

Columns and labels:
[1] = target: [Pyruvate dehydrogenase (acetyl-transferring)] kinase isozyme 2, mitochondrial (Homo sapiens, UniProt Q15119); assay: Inhibition of PDK2 (unknown origin) using PDC E1 as substrate measured after 30 mins by kinase-glo assay
[2] = target: [Pyruvate dehydrogenase (acetyl-transferring)] kinase isozyme 3, mitochondrial (Homo sapiens, UniProt Q15120); assay: Inhibition of PDK3 (unknown origin) using PDC E1 as substrate measured after 30 mins by kinase-glo assay
[3] = target: [Pyruvate dehydrogenase (acetyl-transferring)] kinase isozyme 4, mitochondrial (Homo sapiens, UniProt Q16654); assay: Inhibition of PDK4 (unknown origin) using PDC E1 as substrate measured after 30 mins by kinase-glo assay
NCI-H1975 [4] = assay: Cytotoxicity against human NCI-H1975 cells assessed as reduction in cell proliferation at 1 to 10 uM after 72 hrs under normoxic condition by MTT assay; assay type: cell-based; conditions: nci-h1975, 72 h
[5] = target: Pyruvate dehydrogenase kinase (Homo sapiens) (UniProt Q15119+Q15120+Q16654+Q15118); assay: Inhibition of PDK in human NCI-H1975 cells assessed as reduction in PDC phosphorylation at 10 uM measured after 12 hrs under hypoxic condition by Western blot analysis; assay type: cell-based
[6] = target: [Pyruvate dehydrogenase (acetyl-transferring)] kinase isozyme 1, mitochondrial (Homo sapiens, UniProt Q15118); assay: Inhibition of PDK1 (unknown origin) using PDC E1 as substrate measured after 30 mins by kinase-glo assay
NCI-H1975 [7] = assay: Cytotoxicity against human NCI-H1975 cells assessed as reduction in cell proliferation after 72 hrs under hypoxic condition by MTT assay; conditions: NCI-H1975, 72 h

[Pyruvate dehydrogenase (acetyl-transferring)] kinase isozyme 3, mitochondrial, sequence (Q15120 whole entry): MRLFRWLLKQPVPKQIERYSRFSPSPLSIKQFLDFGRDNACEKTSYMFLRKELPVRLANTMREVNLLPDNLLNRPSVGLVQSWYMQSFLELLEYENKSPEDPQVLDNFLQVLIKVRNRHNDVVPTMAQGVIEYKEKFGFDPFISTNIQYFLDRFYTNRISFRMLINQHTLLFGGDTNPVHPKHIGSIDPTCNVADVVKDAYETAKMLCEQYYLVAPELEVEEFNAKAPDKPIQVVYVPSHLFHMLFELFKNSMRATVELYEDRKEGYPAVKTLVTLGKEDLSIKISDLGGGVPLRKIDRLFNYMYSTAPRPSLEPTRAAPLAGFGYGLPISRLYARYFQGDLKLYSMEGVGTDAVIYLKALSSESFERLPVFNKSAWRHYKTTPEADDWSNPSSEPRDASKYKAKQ
[Pyruvate dehydrogenase (acetyl-transferring)] kinase isozyme 4, mitochondrial, sequence (Q16654 whole entry): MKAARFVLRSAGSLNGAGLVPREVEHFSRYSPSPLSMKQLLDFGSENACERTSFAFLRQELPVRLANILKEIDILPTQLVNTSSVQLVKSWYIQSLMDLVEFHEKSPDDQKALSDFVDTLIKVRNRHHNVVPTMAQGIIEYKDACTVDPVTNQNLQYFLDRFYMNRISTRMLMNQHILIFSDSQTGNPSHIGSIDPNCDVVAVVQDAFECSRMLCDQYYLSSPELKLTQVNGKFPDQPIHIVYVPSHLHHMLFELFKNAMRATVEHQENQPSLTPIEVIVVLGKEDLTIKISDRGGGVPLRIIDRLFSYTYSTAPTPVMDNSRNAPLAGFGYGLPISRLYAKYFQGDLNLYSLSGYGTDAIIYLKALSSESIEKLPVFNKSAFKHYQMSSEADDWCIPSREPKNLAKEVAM
[Pyruvate dehydrogenase (acetyl-transferring)] kinase isozyme 1, mitochondrial, sequence (Q15118 whole entry): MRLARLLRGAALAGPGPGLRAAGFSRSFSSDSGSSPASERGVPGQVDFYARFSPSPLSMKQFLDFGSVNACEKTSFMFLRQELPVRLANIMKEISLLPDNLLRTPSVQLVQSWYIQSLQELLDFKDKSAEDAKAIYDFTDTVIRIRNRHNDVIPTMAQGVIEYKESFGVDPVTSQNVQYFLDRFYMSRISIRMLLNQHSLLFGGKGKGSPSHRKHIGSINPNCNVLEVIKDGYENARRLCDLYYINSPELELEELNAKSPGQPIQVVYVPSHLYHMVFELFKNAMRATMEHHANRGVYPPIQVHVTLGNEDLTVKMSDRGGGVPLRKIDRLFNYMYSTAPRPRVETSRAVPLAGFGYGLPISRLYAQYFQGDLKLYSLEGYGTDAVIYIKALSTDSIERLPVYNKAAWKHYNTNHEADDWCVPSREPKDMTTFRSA

IC50 [1]	IC50 [2]	IC50 [3]	IC50 [6]	SMILES	Activity (NCI-H1975 [4])	inhibition [5]	EC50 (NCI-H1975 [7])
1.5 µM	3.9 µM	6.8 µM		OCCOc1ccc(CN2CCN(Cc3ccc(F)c(F)c3)[C@@H](CCO)C2)cc1	Non-Toxic		
				O=C(c1ccccc1)C(Cl)Cl		Active	
				Cc1cnc(Cl)nc1-c1ccc(N(Cc2ccc(CNC(=O)C(F)F)cc2)C(=O)c2ccc(O)cc2O)cc1	Non-Toxic		
2.6 µM	4.8 µM	8.7 µM	0.62 µM	O=C(NCc1ccccc1-n1cccn1)c1cc(-c2ccccc2O)n[nH]1	Non-Toxic		4.28 µM
2.5 µM	7.8 µM	12.3 µM	1.26 µM	CN(C)CCCn1ccnc1[C@H]1CCCN(C(=O)c2ccc3cc[nH]c3c2)C1	Non-Toxic		
